Assay results reported in ChEMBL document CHEMBL1177785, “Chemoselective regulation of TREK2 channel: activation by sulfonate chalcones and inhibition by sulfonamide chalcones” (Bioorg Med Chem Lett, 2010).

Experiments:
[1] = biological target: T1, Potassium channel subfamily K member 10 (Rattus norvegicus, UniProt Q9JIS4); experiment: Activation of rat TREK2 channel -mediated current expressed in HEK293 at 60 mV holding potential by patch clamp method; assay type: cell-based
T1 sequence (Q9JIS4 whole entry): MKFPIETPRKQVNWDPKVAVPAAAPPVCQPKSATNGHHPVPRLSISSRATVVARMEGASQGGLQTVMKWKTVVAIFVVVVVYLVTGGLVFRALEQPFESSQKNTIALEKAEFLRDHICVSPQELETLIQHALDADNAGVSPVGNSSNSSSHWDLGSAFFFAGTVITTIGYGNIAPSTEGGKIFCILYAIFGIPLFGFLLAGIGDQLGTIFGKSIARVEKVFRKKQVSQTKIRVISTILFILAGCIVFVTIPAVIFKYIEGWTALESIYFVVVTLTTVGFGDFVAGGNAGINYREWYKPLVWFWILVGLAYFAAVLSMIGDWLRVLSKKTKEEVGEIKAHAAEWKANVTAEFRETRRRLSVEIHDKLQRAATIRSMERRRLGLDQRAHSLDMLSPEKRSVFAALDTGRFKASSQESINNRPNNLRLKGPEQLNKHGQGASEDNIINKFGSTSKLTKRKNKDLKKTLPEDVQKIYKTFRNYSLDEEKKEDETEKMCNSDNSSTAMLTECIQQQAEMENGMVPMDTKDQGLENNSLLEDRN

[2] = biological target: T1, Potassium channel subfamily K member 10; experiment: Inhibition of rat TREK2 channel -mediated current expressed in HEK293 at 60 mV holding potential by patch clamp method; assay type: cell-based

EC50 [1] | IC50 [2] | Compound
167 µM |  | Cc1ccc(S(=O)(=O)Oc2ccc(C(=O)/C=C/c3ccc(O)cc3)cc2)cc1
 | 62 µM | Cc1ccc(S(=O)(=O)Nc2ccc(C(=O)/C=C/c3ccc(O)cc3)cc2)cc1
 | 100 µM | COc1ccc(/C=C/C(=O)c2ccc(NS(=O)(=O)c3ccc(C)cc3)cc2)cc1
 | > 100 µM | Cc1ccc(S(=O)(=O)Nc2ccc(C(=O)/C=C/c3ccccc3)cc2)cc1
